Measured values reported in PMC9743426, “Expanding the Chemical Space of Drug-like Passerini Compounds: Can α-Acyloxy Carboxamides Be Considered Hard Drugs?” (ACS Medicinal Chemistry Letters, 2022).

How the values were obtained:
[1] = Hydrolytic (chemical) stability in Tris-HCl buffer pH 7.4; assay type: physicochemical; conditions: 50 mM Tris-HCl buffer pH 7.4, incubation 30 min, without microsomes
Protocol: (§1) For all 43 compounds, a first evaluation of their chemical and metabolic stabilities toward hydrolysis was performed by incubating them in buffer under physiological conditions (50 mM Tris-HCl, pH 7.4) and in mouse liver microsomes (Table 1). This model was chosen because, similar to the human liver, both of the carboxylesterase isoforms are present. […] A more interesting trend was instead possible to observe with benzoic acids.
(§2) Hydrolytic stability in MLM and HLM
(§3) The standard incubation mixture (200 µL final volume) was carried out in a 50 mM TRIS-HCl buffer (pH 7.4) containing 150 mM KCl, tween 80 as cosolvent (0.8 mg/mg protein), and the substrate (10 μM). After pre-equilibration of the mixture, an appropriate volume of MLM or HLM suspension was added to give a final protein concentration of 1.0 mg/mL. The mixture was shaken for 30 minutes at 37 °C. Control incubations were carried out without the presence or microsomes or in pure acetonitrile. Each incubation was stopped by the addition of 200 µL ice-cold acetonitrile, vortexed and centrifuged at 13000 rpm for 5 min. The supernatants were analyzed by LC-HRMS. […]

[2] = Hydrolytic stability in mouse liver microsomes (MLM); assay type: in vitro ADME; conditions: 30 min; for Residual substrate percentage, MLM: mouse liver microsomes 1.0 mg/mL protein, substrate 10 μM, 37 °C
Protocol: as §1, §2, §3

[3] = Hydrolytic stability in human liver microsomes (HLM); assay type: in vitro ADME; conditions: 30 min; for Residual substrate percentage, HLM: human liver microsomes 1.0 mg/mL protein, substrate 10 μM, 37 °C
Protocol: This was made in light of the fact that the overall metabolizing capability of murine hepatic enzymes, including carboxylesterases, is supposed to be higher compared to the human ones.[17]
as §2, §3

[4] = Hydrolytic stability in human plasma; assay type: in vitro ADME; conditions: substrate 10 μM, 30 min, 37 °C
Protocol: As a final point, for some of the compounds characterized by the best hepatic stability, we also evaluated them in human plasma (Table 2) and under acidic and alkaline conditions (see the Supporting Information), the latter to ascertain the stability of α-acyloxy carboxamides in the gastrointestinal tract. […] Once again, the ortho,ortho′-disubstitution of the aromatic ring is the one that gives the best metabolic stability. […]
Hydrolytic stability in human plasma
The standard incubation mixture (100 μL final volume) was carried out by dissolving the tested substrate compounds (10 μM) in DMSO (5% final volume) in preincubated plasma at 37 °C. The mixture was shaken for 30 min at 37 °C. Control incubations were carried out without substrate. Each incubation was stopped by addition of 200 μL of ice-cold acetonitrile, vortexed, and centrifuged at 13000 rpm for 10 min. The supernatants were analyzed by LC-HRMS. […]

[5] = system: P. aeruginosa ATCC 9027; assay: Antibacterial activity, agar well-diffusion method; assay type: cell-based, Pseudomonas aeruginosa; conditions: for Antibacterial activity (in words): P. aeruginosa ATCC 9027, 1 mg/mL; for Inhibition zone: P. aeruginosa ATCC 9027, 1 mg/mL in DMSO, 55 μL per 6 mm well, 24 h at 37 °C, average ± SD
Text: Recently an article presented the synthesis of 1,3-phenylenebis(2-(cyclohexylamino)-2-oxoethane-1,1-diyl) dibenzoate (99) (Figure 6), obtained with a double Passerini reaction starting from 1,3-benzenedicarbaldehyde. […] According to our studies, compounds 99 is expected to suffer from metabolic instability, whereas the new analogue 100 designed by us (Figure 6), containing methyl groups at the two ortho positions in each benzoate group, should be metabolically stable. We then synthesized the two compounds and evaluated their antibacterial activities on P. aeruginosa and their hydrolytic stabilities. The in vitro antibacterial activities of 99 and 100 were evaluated against the P. aeruginosa ATCC 9027 strain. […] No inhibition halos were observed around the wells containing DMSO alone.
The in vitro antibacterial activity of the compounds was assayed against the Gram-negative P. aeruginosa
ATCC 9027 by the agar well-diffusion method. Compounds 99, 100, and gentamycin were dissolved in
DMSO (Scharlab, Barcelona, ES) and tested at the concentration of 1 mg/mL. For comparison, gentamycin
was used as a negative control of growth and DMSO as positive control of growth. The strain, obtained from
the American Type Culture Collection (ATCC, Manassas, VA, United States) and stored at −80 °C in Brain
Heart Infusion (Scharlab, Barcelona, ES) with 25% glycerol (Scharlab, Barcelona, ES), was cultured onto
Tryptic Soy Agar (Scharlab, Barcelona, ES) at 37°C for 16 h.
A bacterial suspension (ca. 1.5×10^8 Colony Forming Unit per ml) was prepared in isotonic saline solution
(NaCl 0,9%) and spread onto Muller-Hinton agar (Scharlab, Barcelona, ES) surfaces using a sterile swab.
Wells (6 mm diameter) were punched using a sterile punch cutter and filled with 55 μL of each sample. Plates
were left at room temperature for 1h to allow each sample to diffuse into the agar and then incubated at 37 °C
for 24 h. Finally, the inhibition zone diameters were measured.
The assay was carried out in triplicate and repeated twice. Results were expressed as average values ± standard

[6] = system: Pseudomonas aeruginosa; parameters: method as in doi:10.1155/2013/125959; conditions: mixture of two enantiomers and a meso form; cited from earlier work

| Compound | Residual substrate percentage, buffer [1] [%] | Residual substrate percentage, MLM [2] [%] | Residual substrate percentage, HLM [3] [%] | Hydrolytic stability in human liver microsomes (in words) [3] | Residual substrate percentage, plasma [4] [%] | Hydrolysis of the ester group in mouse liver microsomes (in words) [2] | Antibacterial activity (in words) [5] | Inhibition zone [5] [mm] | Antibacterial activity against Pseudomonas aeruginosa (in words) [6] |
| --- | --- | --- | --- | --- | --- | --- | --- | --- | --- |
| Cc1cccc(Cl)c1C(=O)OCC(=O)NC(C)(C)C [Compound 80] | 98 | 97 | >99 | excellent stability | >99 |  |  |  |  |
| CC(C)(C)NC(=O)C(OC(=O)c1ccccc1)c1ccccc1-c1ccccc1 (stereo not shown) [Compound 58] | >99 | 2 | >99 | stable | 90 | rapidly degraded |  |  |  |
| Cc1cccc(C)c1C(OC(=O)c1ccccc1)C(=O)NC(C)(C)C (stereo not shown) [Compound 57] | >99 | 3 | 73 | stable | 90 | rapidly degraded |  |  |  |
| Cc1cccc(C)c1C(=O)OC(C(=O)NC(C)(C)C)c1ccccc1 (stereo not shown) [Compound 78, 2-(tert-butylamino)-2-oxo-1-phenylethyl 2,6-dimethylbenzoate] | >99 | >99 | >99 | excellent stability | >99 |  |  |  |  |
| Cc1ccc(Br)c(C)c1C(=O)OCC(=O)NC(C)(C)C [Compound 98] | >99 | >99 | >99 | excellent stability | >99 | extremely stable |  |  |  |
| O=C(OC(C(=O)NC1CCCCC1)c1cccc(C(OC(=O)c2ccccc2)C(=O)NC2CCCCC2)c1)c1ccccc1 (stereo not shown) [Compound 99, 1,3-phenylenebis(2-(cyclohexylamino)-2-oxoethane-1,1-diyl) dibenzoate, reference compound] | >99 | 5 | 47 | hydrolytic stability increased | 93 | high instability | moderate antibacterial activities | 10.2 ± 1.2 | good antibacterial activity |
| gentamycin |  |  |  |  |  |  |  | 22.3 ± 1.7 |  |
| Cc1cccc(C)c1C(=O)OC(C(=O)NC1CCCCC1)c1cccc(C(OC(=O)c2c(C)cccc2C)C(=O)NC2CCCCC2)c1 (stereo not shown) [Compound 100] | >99 | 95 | >99 | completely stable | 84 | completely stable | moderate antibacterial activities | 10.4 ± 1.3 |  |
